Measured values from patent publication US8969612B2, “Low interfacial tension surfactants for petroleum applications” (Soane Energy, LLC, priority 2009, dated 2015).

Assays:
Format in all cases: physicochemical
[1] = Solubility in water at 25° C.
[2] = Interfacial tension, Du Nouys ring tensiometer (Example 14), interface with air; conditions: 1% by weight solution, neutral pH (5 M NaOH)
Method: (§1) Surfactant molecules were tested for their ability to decrease the surface tension across the aqueous-organic interface.

[3] = Interfacial tension, Du Nouys ring tensiometer (Example 14), interface with ISOPAR M; conditions: 1% by weight solution, neutral pH (5 M NaOH)
Method: as §1

[4] = Interfacial tension, Du Nouys ring tensiometer (Example 14), interface with light crude oil; conditions: 1% by weight solution, neutral pH (5 M NaOH); light crude oil API=37.4°
Method: as §1

[5] = Viscosity of 70:30 heavy oil to water mixture, Brookfield rheometer (Example 16)
Method: The mixture was gently stirred until it was observed it achieved a single liquid phase. Previously, the viscosity of the neat heavy oil sample was measured at 3431 cP using a Brookfield DVIII+ Rheometer. […] Next, 1 mL of 10 M HCl was added and the mixture was stirred gently, while observing phase separation of the oil and water.

Row | solubility in water (in words) [1] | IFT w/air [2] | IFT w/ISOPAR [3] | IFT w/Crude Oil [4] | viscosity of the 70:30 oil to water mixture ([5]; 105 mL heavy oil + 45 mL 1% surfactant solution, neat heavy oil 3431 cP) | Compound | viscosity of oil decanted after phase separation with HCl ([5]; after addition of 1 mL of 10 M HCl to the 70:30 mixture)
1 | very limited solubility in water |  |  |  |  | CCCCCC/C=C/CC(CC(=O)OCC(C)(C)COC(=O)CC(C/C=C/CCCCCC)C(=O)O)C(=O)O (stereo not drawn) [Example 2] | 
2 |  | 28.68 mN/m | 0.09 mN/m | <0.01 mN/m | 100.2 cP | 2-(nonen-1-yl)succinic acid mono (2-cyclohexylethyl) ester [Example 3] | same viscosity measurement as the untreated heavy oil sample
